According to EP0831769B2, “NOVEL USES FOR THYROID HORMONES OR THYROID HORMONE-LIKE COMPOUNDS” (Lavin, Dr., Thomas N., priority 1995, dated 1996):
Where “and” joins values, the source holds several entries; their conditions need not be identical. Equal entries are not always repeated. Entries after “also recorded” stand apart in the source; their conditions may differ. Where two headings read alike, the source gives them in different places.

How the values were obtained:
[1] = target: T1, human thyroid receptor (Homo sapiens, UniProt P10828); experiment: Thyroid hormone receptor binding affinity
T1 sequence (P10828 1-461): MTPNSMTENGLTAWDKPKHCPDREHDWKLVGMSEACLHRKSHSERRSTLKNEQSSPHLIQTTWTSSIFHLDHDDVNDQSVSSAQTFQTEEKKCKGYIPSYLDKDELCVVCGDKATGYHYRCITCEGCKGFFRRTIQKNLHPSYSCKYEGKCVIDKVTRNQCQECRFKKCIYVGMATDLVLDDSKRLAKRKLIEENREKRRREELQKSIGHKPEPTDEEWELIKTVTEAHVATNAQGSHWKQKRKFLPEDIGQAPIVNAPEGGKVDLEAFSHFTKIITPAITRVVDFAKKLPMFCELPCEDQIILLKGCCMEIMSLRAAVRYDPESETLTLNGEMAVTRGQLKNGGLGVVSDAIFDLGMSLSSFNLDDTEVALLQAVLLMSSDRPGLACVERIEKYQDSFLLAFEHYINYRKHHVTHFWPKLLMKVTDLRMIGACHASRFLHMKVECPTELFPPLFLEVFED
Source text: Partial agonist/antagonists also may exist. (Suitable ligands may be agonists or antagonists).

[2] = system: Skin-2 model ZK1301; experiment: Skin-2 model: mRNA expression by RT-PCR, semi-quantitative;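 further: Three-dimensional human skin equivalent of dermal fibroblasts and foreskin keratinocytes at an air-liquid interface, exposed for 10 or 48 h, mRNA measured in total RNA by RT-PCR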
Source text: A novel synthetic human skin, Skin- 2 model ZK1301 (Advanced Tissue Sciences, La Jolla (USA)) is composed of a three dimensional human skin culture consisting of a dermal fibroblast layer and human foreskin keratinocytes which can be grown with an air-keratinocyte interface to promote normal differentiation and cornification of the model skin.
The following were components of the Skin^2 kits: 9x9 mm skin tissues on agarose, 6-well plates, and Millicell inserts. Two media based on Dulbecco's Modification of Eagle's medium were also included: Maintenance medium (containing 5% fetal calf serum) and serum-free assay medium.
All-trans-retinoic acid, 1,25-(OH)2-vitamin D3, and betamethasone were purchased from Sigma Chemicals (Stockholm). Upon arrival the skin tissues were placed dermal-side down into the center of a Millicell in a 6-well plate well containing prewarmed maintenance medium. The tissues were incubated at 37°C in an atmosphere of 5% CO2 in air. After 24 h the maintenance medium was exchanged.
Following another 24 h the Maintenance medium was removed and replaced by Serum- free assay medium containing 5% "stripped" fetal calf serum. Substances were added within 1 h after medium exchange and the tissues were incubated for 10 or 48 h in the presence of the substances. Medium and substances were changed after 24 h incubation. The cells were grown at an air - liquid interface. At the end of the 48 h-incubation period two tissues were pooled together in a sterile plastic centrifugation tube. The tissue was snap frozen on solid ice (-60°C) and stored at -70°C until used. Duplicate samples were included for each treatment.
Total RNA was extracted from Skin^2 -samples and human skin biopsies using Ultraspec II (Biotecx Laboratories, Inc., Houston, TX). One ml of Ultraspec II was added to each sample which were homogenized by using a Polytron for 2x20 sec at setting 6. Total RNA was extracted according to the protocol supplied by the manufacturer. […] After incubation at 37°C for 60 min, the reaction was stopped by heating at 75°C for 10 min and the mixture stored at -70°C until cDNA amplification was performed.
The tubes were placed in a Thermal cycler (Perkin-Elmer) programmed as follows: (a) 90°C for 90 s; (b) variable number of cycles (see Table 1) of the following sequential steps: 60 s at 94°C, 75 s at annealing temp (see Table 1), 90 s at 72°C; and (c) 7 min at 72°C. […] Gels were recorded by videoprints. The amount of product was estimated on the videopoint or directly on the gel. The amount of transcripts in each lane were compared in relation to two control samples run in parallel.

[3] = system: phosphodiesterase; details: in vitro, isolated adipocytes; FR2354101; cited from earlier work
[4] = system: Hairless mice SKH-1; experiment: Photodamaged skin: UV-B irradiated hairless mice treated with cream for 16 weeks; type: in vivo; details: cream for 16 weeks after 12 weeks of UV-B irradiation, compared to untreated irradiated animals
Protocol: Hairless mice SKH-1 are UV-B irradiated according to the schedule of (22). After 12 weeks of irradiation, significant wrinkling results. The mice are treated with the thyroid hormone Triac-containing cream for a period of 16 weeks after irradiation. The degree of wrinkling appearing on the irradiated mice is compared to untreated, irradiated animals to which the appropriate pharmaceutical base is not applied.

[5] = Table 3, Skin-2 model, 10uM, transcriptional response score
[6] = Table 3, Skin-2 model, 10uM, transcriptional response score, listed as L-T-I
[7] = Skin-2 model, 1 µM, semi quantitative mRNA change vs control
[8] = Table 3, Skin-2 model, 1 µM, transcriptional response score
[9] = Skin-2 model, 50 nM, semi quantitative mRNA change vs control
[10] = Table 3, Skin-2 model, 50nM, transcriptional response score

Structure (SMILES)	Ki [1] [nM]	IL-6 [2, 7]	col 1A-1 [2, 7]	col 3A-1 [2, 7]	crabp-II [2, 7]	k1 [2, 7]	k10 [2, 7]	k16 [2, 7]	k19 [2, 7]	tgfbeta-2 [2, 7]	trans gk [2, 7]	col a-1 [2, 8]	col a-3 [2, 8]	k16 [2, 8]	gf(pdgf-L) [2, 8]	k1 [2, 8]	k10 [2, 8]	scce [2, 8]	trans gk [2, 8]	other results
N[C@@H](Cc1ccc(Oc2ccc(O)cc2)c(I)c1)C(=O)O [L-T-1, 3-idodo-L-Thronine]	20000	–	–	–	–	–	–	–	–	–	–	–	–	–	–	–	–	–	–	binding to the thyroid hormone receptor (in words) ([1]; b58: even at the tested ten micromolar concentration): no thyroid hormone receptor binding activity; also recorded: binds poorly; col a-1 [2, 5]: 0.5; col a-3 [2, 5]: 0.5; gf(pdgf-L) [2, 5]: 1; k1 [2, 5]: 0; k10 [2, 5]: 0; k16 [2, 5]: 0; scce [2, 5]: 1; trans gk [2, 5]: 1; col a-1 [2, 6]: only modest effects; col a-3 [2, 6]: only modest effects; k1 [2, 6]: no inhibition; k10 [2, 6]: no inhibition; scce [2, 6]: positive effect; trans gk [2, 6]: positive effect
C=C1C(=CC=C2CCCC3(C)C2CCC3C(C)CCCC(C)(C)O)CC(O)CC1O (stereo not shown) [vit D, 1,25-(OH)2-vitamin D3]	–	-1	2	2	-1	0	-1	0	0	2	-1	–	–	–	–	–	–	–	–	ctgf(pdgf-L) [2, 7]: 0; scce [2, 7]: 0
C[C@H]1C[C@H]2[C@@H]3CCC4=CC(=O)C=C[C@]4(C)[C@@]3(F)[C@@H](O)C[C@]2(C)[C@@]1(O)C(=O)CO [betameth, betamethasone]	–	-2	0.5	-0.5	-1	-3	-0.5	-1	-0.5	0	-1	–	–	–	–	–	–	–	–	ctgf(pdgf-L) [2, 7]: 1; scce [2, 7]: -1
NC(Cc1cc(Br)c(Oc2ccc(O)c(Cc3ccc(=O)[nH]n3)c2)c(Br)c1)C(=O)O (stereo not shown) [compound number 5]	8	–	–	–	–	–	–	–	–	–	–	0	0	-0.5	–	–	–	–	–	relative selectivity of gene responses ([2]; Skin-2 model, 1 µM, epidermal differentiation genes versus collagen genes): relative selectively for keratin 1, tranglutaminase K and SCCE responses over collagen responses
O=C(O)c1cc(I)c(Oc2ccc(O)c(I)c2)c(I)c1 [compound number 2]	0.1	–	–	–	–	–	–	–	–	–	–	2	1	0	1	-1	0	0.5	0.5	–
N[C@@H](Cc1cc(I)c(Oc2ccc(O)c(I)c2)c(I)c1)C(=O)O [compound number 1, Trilodothyronine]	–	–	–	–	–	–	–	–	–	–	–	1	2	0	1	-2	-0.5	0.5	0	–
Cc1cc(C[C@H](N)C(=O)O)cc(C)c1Oc1ccc(O)c(C(C)C)c1 [compound number 6, 1-3,5-Dimethyl-3'-isopropylthyronine]	–	–	–	–	–	–	–	–	–	–	–	1	0.5	0	1	-2	-1	-1	-2	Ki ([1]; Table 3, binding affinity to the human thyroid receptor, read-out: Ki): 75 nM
N[C@@H](Cc1cc(I)c(Oc2cc(I)c(O)c(I)c2)c(I)c1)C(=O)O [compound number 3, Thyroxine]	–	–	–	–	–	–	–	–	–	–	–	2	0.5	0	1	-2	-1	0	1	–
CC1=C(/C=C/C(C)=C/C=C/C(C)=C/C(=O)O)C(C)(C)CCC1 [RA, All-trans-retinoic acid]	–	-1	2	1	1	-3	-1	-0.5	-1	2	-3	–	–	–	–	–	–	–	–	ctgf(pdgf-L) [2, 7]: 1
Cc1cc(NC(=O)C(=O)O)cc(C)c1Oc1ccc(O)c(C(C)C)c1 [compound number 7, N-[3,5-Dimethy-4-(4'-hydroxy-3'-isopropylphenoxy)-phenyl]oxamic Acid]	0.1	–	–	–	–	–	–	–	–	–	–	1	1	0.5	1	-1	1	-1	-1	–
O=C(O)Cc1cc(I)c(Oc2ccc(O)c(I)c2)c(I)c1 [Triac, tri-iodothyroacetic acid]	–	-0.5	2	1	-1	-2	-2	-0.5	-1	2	-3	1	1	0	2 and 1	-1	–	–	-0.5	dose range at which phosphodiesterase inhibition and cyclic AMP increase occur [3]: approximately 10^-4 M; ctgf(pdgf-L) [2, 9]: 1; k16 [2, 9]: -1; k19 [2, 9]: -1; scce [2, 7]: -2; k1 [2, 10]: -2; k16 [2, 10]: 0; skin collagen [4]: increase; wrinkle pattern of the animals [4]: significant decrease
